According to US20210353579A1, “HIGH PENETRATION COMPOSITIONS AND USES THEREOF” (Techfields Pharma Co., Ltd., priority 2006, published 2021):

Legend:
[1] = tested on: spontaneously hypertensive and stroke prone rats (SLAC/SHRSP); test: Anti-stroke activity, carotid thrombosis by electrical stimulation (treated before operation); assay type: in vivo, rat; conditions: 100 mg/kg transdermally 2 hour before and 1 hour after operation, then 50 mg/kg twice per day
Procedure: (§1) Thrombosis was induced by electrical stimulation (1 mA for 3 minutes) of the carotid artery in spontaneously hypertensive and stroke prone rats (SLAC/SHRSP) by using a thrombosis formation instrument (YLS-14A, Shandong Academy of Medical Sciences, Shandong, China). The rats (Spragu Dawley, 25 weeks old, 380-450 g) were divided into 3 groups randomly, group A is the control group, groups B and C are aspirinamine-treated group. In group B, 100 mg/kg of aspirinamine citric acid salt (10% in water) was applied to the rats' back skin (˜5 cm^2, fur was cut off) 2 hour before the operation and 1 hour after the operation, then 50 mg/kg of the drug was applied to the back of rats twice per day. In group C, 50 mg/kg of aspirinamine was applied to the back of rats twice per day starting from 24 hours after the operation. The recovery of motor functions of rats was evaluated every day. The operation process is outlined in the Method section in the supporting online materials. […] The HPP of aspirin is the first drug which can reverses paralysis from post-stroke.

[2] = tested on: spontaneously hypertensive and stroke prone rats (SLAC/SHRSP); test: Alleviation of the effects of strokes (treatment from 24 hours after operation); assay type: in vivo, rat; conditions: 50 mg/kg twice per day on the back from 24 hours after the operation
Procedure: as §1

[3] = tested on: C57/BL6 mice, MPTP; test: MPTP Parkinson's disease mice: DA, NA, 5-HT in the striatum; assay type: in vivo, mouse
Excerpt: (§2) The mice were divided into 2 groups.

[4] = tested on: C57/BL6 mice, MPTP; test: MPTP Parkinson's disease mice: GABA and Glu in substantia nigra and striatum
Procedure: Group A mice were i.p. injected 0.4% sodium carboxymethylcellulos (15 ml/kg per day) for 7 days. Group B and C mice were i.p. injected N-methyl-4-phenyl-1,2,3,6-tetrahydropyridine (MPTP, 30 mg/kg per day) for 7 days. The mice were divided into 2 groups. […] All mice were killed after the last treatment and the brain tissues were quickly frozen at −80° C. […] The contents of GABA and Glu in the striatum and SN were shown by high performance amino acid auto-analyser.

[5] = tested on: C57/BL6 mice, MPTP; test: MPTP Parkinson's disease mice: GSH and MDA in the substantia nigra; assay type: in vivo, mouse; conditions: MPTP + 30 mg/kg transdermally 14 days
Excerpt: as §2

[6] = pH 7
[7] = tested on: mice; test: Analgesic activity, acetic acid writhing; assay type: in vivo; conditions: 30 min before acetic acid
Procedure: The prodrug compounds are administered either transdermally or orally. The parent compounds are administered orally. The number of writhing that occurred when mice are administered the acetic acid solution are counted, and the rate of inhibition based on the control group which was not pretreated with any test compounds is calculated. […] The A group is the control group.

[8] = tested on: rat; conditions: rats;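 note: acute toxicity in rats expressed as LD50, determined for both prodrugs and their parent compounds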
Procedure: The acute toxicity of the prodrug compounds and parent compounds are measured by LD50 of rat.

[9] = tested on: human skin tissue; conditions: pH 7.4
[10] = tested on: rats; test: Antipyretic activity, E. coli suspension as pyrogen; assay type: in vivo; conditions: in °C (unit assumed)
Procedure: Rats are administered with sterilized E. coli suspension as a pyrogen. Each group of rats are administered with a prodrug compounds or parent compounds at a dosage specified below. The prodrug compounds are administered either orally or transdermally. The parent compounds are administered orally.

[11] = tested on: sun damaged skin; test: Treatment of sun damaged skin of subjects; assay type: in vivo; conditions: applied to sun damaged skin
Excerpt: Diethylaminoethyl acetylsalicylate.AcOH is applied to subjects' the sun damaged skin. […] 92% of the subjects treated experienced improved elasticity and firmness, and 95% experienced overall improvement in texture and tone. The results shown that HPPs of aspirin and related compounds may be used to treat skin conditions.

[12] = Plasma levels after transdermal administration to hairless mice; assay type: in vivo; conditions: mouse, in vivo
Procedure: Tested compounds (20% solution or suspension in 1 mL isopropanol) are administered transdermally to the skin of intact hairless mice. The plasma levels of the parent compounds are determined by HPLC.

[13] = tested on: rats; test: Spinal cord injury, recovery from paralysis; assay type: in vivo, rat; conditions: 5 mg in 0.2 ml water on the area of injury twice per day for 1 months
Procedure: A group of rat was anesthetized with chloral hydrate, the spinal cord of rats was hit to induce spinal cord injury. At the next day, 20 completely paralyzed rats were divided into 2 groups. […] In group B (n=10), 5 mg of diethylaminopropyl acetylsalicylate.HCl in 0.2 ml of pure water was applied to the area of injury (˜2×3 cm^2) twice per day for 1 months. After the treatment, all rats (10/10) in control group (group A) were still completely paralyzed. We were excited to see that all rats (10/10) in the diethylaminopropyl acetylsalicylate.HCl treated group (group B) could walk. 4 Rats of them were completely normal and other 6 rats walked more slowly and less confidently than their injury. This therapeutic approach can treat spinal cord injury in humans and animals.

[14] = tested on: β-amyloid (Aβ); test: Tg2576 mouse model of Alzheimer disease: Aβ and senile plaques; assay type: in vivo
Excerpt: For many years, efforts have been focused on the development of inhibitors of β-amyloid (Aβ) formation and its related neurotoxic effects. To determine the effect of diethylaminopropyl acetylsalicylate. HCl on in vivo Aβ accumulation, we administered transdermally diethylaminopropyl acetylsalicylate. […] Three-month-old female transgenic mice overexpressing the human APP gene containing the Swedish mutation that causes familial AD (Tg2576 line) were used for testing the effects of diethylaminopropyl acetylsalicylate.HCl in vivo. 20 Tg2576 mice were divided into 2 groups. […] In group B (n=10), 50 mg/kg of diethylaminopropyl acetylsalicylate.HCl in 0.2 ml of pure water was applied to the back of mouse once per day for 2 months. Then the animals were killed and their brains were removed for analysis. For Aβ analysis, hemibrains were dounce homogenized in 70% formic acid at 150 mg tissue/ml formic acid solution. Homogenates were transferred to a chilled ultracentrifuge and were then spun at 100,000 g for 1 h at 4° C. Supernatants were collected and neutralized with formic acid neutralization buffer (1.0 M Tris base, 0.5 M NaH2PO4, and 0.05% NaN3; 1:20) for Aβ quantitation by ELISA. Aβ40 and Aβ42 were assayed by ELISA. Four individual experiments were performed. To compare across studies, the values for an individual study were normalized using the values obtained for the control animals included in each study. Values represent the mean±SE for the n number shown, after normalizing.

[15] = tested on: Tg2576 mouse; test: Tg2576 mice: radial-arm water-maze test of working memory; assay type: in vivo; conditions: 50 mg/kg, 2 months
Procedure: To determine if the transdermal administration of diethylaminopropyl acetylsalicylate.HCl has beneficial functional consequences, we tested 2 months of diethylaminopropyl acetylsalicylate.HCl (50 mg/kg) in the transgenic model for Alzheimer's disease in which mice develop learning deficits as amyloid accumulates. […] In the diethylaminopropyl acetylsalicylate.HCl (50 mg/kg) treated group, all mice performed superbly on the radial-arm water-maze test of working memory and untreated transgenic mice show memory deficits. […] This therapeutic approach can thus prevent and treat Alzheimer's dementia.

[16] = MPTP mice, 30 mg/kg transdermally to the neck once per day for 14 days
[17] = MPTP mice, 30 mg/kg transdermally once per day for 14 days
[18] = 50 mg/kg transdermally, 2 months

CCN(CC)CCOC(=O)c1ccccc1OC(C)=O.O=C(O)CC(O)(CC(=O)O)C(=O)O [diethylaminoethyl acetylsalicylate.citric acid]
Stroke-free rats (2 hours) [1]: 8/10
Stroke-free rats (1 day) [1]: 9/10
Stroke-free rats (7 days) [1]: 10/10
Stroke-free rats (3 hrs) ([2]; 3 hrs after operation (before treatment start)): 0/10
Stroke-free rats (2 day) ([2]; 2 day): 4/10
Weight Loss (3 days) ([2]; 3 days): −13 +/− 7%
Stroke-free rats (7 day) ([2]; 7 day): 9/10
Weight Loss (7 days) ([2]; 7 days): −7 +/− 4%
Stroke-free rats (14 days) ([2]; 14 days): 10/10
Weight Loss (14 days) ([2]; 14 days): −4 +/− 2%
DA, NA, and 5-HT contents in the striatum ([3]; 30 mg/kg transdermally, vs MPTP model group, P<0.05): increased
5-HT concentration in the striatum [3, 16]: 302 ± 29
DA concentration in the striatum [3, 16]: 817 ± 89 μg/g wet tissue
NA concentration in the striatum [3, 16]: 602 ± 55
MPTP-induced changes of GABA in striatum and SN ([4]; 30 mg/kg): reversed
GABA concentration, Striatum [4, 17]: 4.9 ± 1.6 μmol/g wet tissue
GABA concentration, Substantia nigra [4, 17]: 4.7 ± 0.5 μmol/g wet tissue
Glu concentration, Striatum [4, 17]: 26.5 ± 2.7
Glu concentration, Substantia nigra [4, 17]: 29.5 ± 2.4
MDA in the substantia nigra ([5]; control 13 ± 3, MPTP + water 21 ± 4): 14 ± 4 μmol/g protein
GSH in the substantia nigra ([5]; control 152 ± 12, MPTP + water 101 ± 17): 143 ± 13 μg/g protein

CCN(CC)CCOC(=O)c1ccccc1OC(C)=O [diethylaminoethyl acetylsalicylate.AcOH]
Solubility of HPP [6]: >300 mg/mL
% (rate of writhing inhibition) ([7]; 50 mg/kg orally): 54%
No. of Writhing ([7]; 50 mg/kg orally): 15.4
% (rate of writhing inhibition) ([7]; 50 mg/kg transdermally): 56%
No. of Writhing ([7]; 50 mg/kg transdermally): 14.5
% (rate of writhing inhibition) ([7]; 100 mg/kg orally): 67%
No. of Writhing ([7]; 100 mg/kg orally): 11.0
% (rate of writhing inhibition) ([7]; 100 mg/kg transdermally): 70%
No. of Writhing ([7]; 100 mg/kg transdermally): 10.1
LD50 of HPP [8]: 2300 mg/kg
In vitro penetration rate (apparent flux), prodrug compounds [9]: 1000 μg/cm^2/h
body temperature, t = 0 min ([10]; 100 mg/kg orally): 37.25 ± 0.09
body temperature, t = 90 min ([10]; 100 mg/kg orally): 36.40 ± 0.15
body temperature, t = 180 min ([10]; 100 mg/kg orally): 36.50 ± 0.09
body temperature, t = 270 min ([10]; 100 mg/kg orally): 36.40 ± 0.15
body temperature, t = 0 min ([10]; 100 mg/kg transdermally): 37.19 ± 0.07
body temperature, t = 90 min ([10]; 100 mg/kg transdermally): 36.40 ± 0.05
body temperature, t = 180 min ([10]; 100 mg/kg transdermally): 36.38 ± 0.05
body temperature, t = 270 min ([10]; 100 mg/kg transdermally): 36.40 ± 0.15
body temperature, t = 0 min ([10]; 150 mg/kg orally): 37.18 ± 0.07
body temperature, t = 90 min ([10]; 150 mg/kg orally): 36.30 ± 0.15
body temperature, t = 180 min ([10]; 150 mg/kg orally): 36.28 ± 0.07
body temperature, t = 270 min ([10]; 150 mg/kg orally): 36.20 ± 0.09
body temperature, t = 0 min ([10]; 150 mg/kg transdermally): 37.33 ± 0.05
body temperature, t = 90 min ([10]; 150 mg/kg transdermally): 36.27 ± 0.15
body temperature, t = 180 min ([10]; 150 mg/kg transdermally): 36.26 ± 0.07
body temperature, t = 270 min ([10]; 150 mg/kg transdermally): 36.22 ± 0.08
reduction in roughness [11]: 89%
reduction in the appearance of fine lines and wrinkles [11]: 85%
reduction in the look of freckles, moles, dark spots, and other discolorations [11]: 85%
reduction of acne [11]: 97%
subjects that experienced overall improvement in texture and tone [11]: 95%
subjects treated that experienced improved elasticity and firmness [11]: 92%
Peak plasma concentration of parent compound after prodrug compound [12]: 30 mg/L
t, time to peak plasma level of parent compound after prodrug compound [12]: 20 min

CCN(CC)CCCOC(=O)c1ccccc1OC(C)=O.Cl [diethylaminopropyl acetylsalicylate.HCl]
rats completely normal after treatment [13]: 4
rats that could walk after treatment [13]: 10/10
reduction in the number of senile plaques ([14]; 50 mg/kg transdermally over 2 months): 70-80%
reduction in Aβ42 concentration in the brain [14, 18]: 70%
reduction of the amount of Aβ detected in the brains [14, 18]: 70%
Aß42 concentration ([14]; Tg2576 mice, 50 mg/kg transdermally once per day for 2 months): 2.3 ± 0.3 pmol/g tissue
cognitive performance, radial-arm water-maze test of working memory [15]: performed as well as nontransgenic mice
